Columns and labels:
[1] = test system: Cyperus iria; assay: Preemergence weed control under flooded paddy conditions, CYPIR (Rice Flatsedge); type: in vivo; details: preemergence, flooded paddy, rated three to four weeks after treatment
[2] = test system: Oryza sativa, (L.) Tebonnet; assay: Rice tolerance to post-transplant applications under flooded paddy conditions (Example 187), ORYSAT (Rice, Tebonnet); details: rated three to four weeks after treatment; as to herbicidal effect rating ORYSAT: meaning of each grade not given here
[3] = test system: Sagittaria pygmaea, L.; assay: Preemergence weed control under flooded paddy conditions, SAGPY (Arrowhead (Pygmaea)); type: in vivo; details: preemergence, flooded paddy, rated three to four weeks after treatment
[4] = test system: Cyperus serotinus, Rottb.; assay: Preemergence weed control under flooded paddy conditions, CYPSE (Flatsedge); type: in vivo; details: preemergence, rated three to four weeks after treatment
[5] = test system: Monochoria vaginalis, Presl.; assay: Preemergence weed control under flooded paddy conditions, MOOVA (Monochoria); type: in vivo; details: preemergence, flooded paddy, rated three to four weeks after treatment
[6] = test system: Echinochloa oryzoides (Ard.) Fritsch.; assay: Preemergence weed control under flooded paddy conditions, ECHORC (Watergrass (Calif.)); type: in vivo; details: preemergence, flooded paddy, rated three to four weeks after treatment

## COP(=O)(Cc1nsc2ccc(-n3c(=O)cc(C(F)(F)F)n(C)c3=O)cc12)OC [Example 262, 1,2-Benzisothiazole-3-methanephosphonic acid, 5-[3,6-dihydro-3-methyl-2,6-dioxo-4-(trifluoromethyl)-1(2H)-pyrimidinyl]-, dimethyl ester]
[1]; Rate 0.0620 kg/ha
  CYPIR herbicidal effect rating: 0.0
[1]; Rate 0.1250 kg/ha
  CYPIR herbicidal effect rating: 6.0
[1]; Rate 0.2500 kg/ha
  CYPIR herbicidal effect rating: 9.0
[2]; Rate 0.0620 kg/ha
  ORYSAT herbicidal effect rating: 0.0
[2]; Rate 0.1250 kg/ha
  ORYSAT herbicidal effect rating: 0.0
[2]; Rate 0.2500 kg/ha
  ORYSAT herbicidal effect rating: 3.0
[3]; Rate 0.0620 kg/ha
  SAGPY herbicidal effect rating: 0.0
[3]; Rate 0.1250 kg/ha
  SAGPY herbicidal effect rating: 0.0
[3]; Rate 0.2500 kg/ha
  SAGPY herbicidal effect rating: 0.0
[4]; Rate 0.0620 kg/ha
  CYPSE herbicidal effect rating: 0.0
[4]; Rate 0.1250 kg/ha
  CYPSE herbicidal effect rating: 0.0
[4]; Rate 0.2500 kg/ha
  CYPSE herbicidal effect rating: 0.0
[5]; Rate 0.0620 kg/ha
  MOOVA herbicidal effect rating: 0.0
[5]; Rate 0.1250 kg/ha
  MOOVA herbicidal effect rating: 9.0
[5]; Rate 0.2500 kg/ha
  MOOVA herbicidal effect rating: 9.0
[6]; Rate 0.0620 kg/ha
  ECHORC herbicidal effect rating: 0.0
[6]; Rate 0.1250 kg/ha
  ECHORC herbicidal effect rating: 0.0
[6]; Rate 0.2500 kg/ha
  ECHORC herbicidal effect rating: 3.0

## CC(C)c1nsc2ccc(-n3c(=O)cc(C(F)(F)F)n(C)c3=O)cc12 [Example 499, 2,4(1H,3H)-Pyrimidinedione, 3-(3-isopropyl-1,2-benzisothiazol-5-yl)-1-methyl-6-(trifluoromethyl)-]
[1]; 0.0320 kg/ha
  CYPIR herbicidal rating: 8.0
[1]; 0.0620 kg/ha
  CYPIR herbicidal rating: 9.0
[1]; 0.1250 kg/ha
  CYPIR herbicidal rating: 9.0
[1]; 0.2500 kg/ha
  CYPIR herbicidal rating: 9.0
[2]; 0.0320 kg/ha
  ORYSAT herbicidal rating (rice tolerance): 6.5
[2]; 0.0620 kg/ha
  ORYSAT herbicidal rating (rice tolerance): 8.0
[2]; 0.1250 kg/ha
  ORYSAT herbicidal rating (rice tolerance): 7.5
[2]; 0.2500 kg/ha
  ORYSAT herbicidal rating (rice tolerance): 9.0
[3]; 0.0320 kg/ha
  SAGPY herbicidal rating: 8.0
[3]; 0.0620 kg/ha
  SAGPY herbicidal rating: 9.0
[3]; 0.1250 kg/ha
  SAGPY herbicidal rating: 9.0
[3]; 0.2500 kg/ha
  SAGPY herbicidal rating: 9.0
[4]; 0.0320 kg/ha
  CYPSE herbicidal rating: 9.0
[4]; 0.0620 kg/ha
  CYPSE herbicidal rating: 9.0
[4]; 0.1250 kg/ha
  CYPSE herbicidal rating: 9.0
[4]; 0.2500 kg/ha
  CYPSE herbicidal rating: 9.0
[5]; 0.0320 kg/ha
  MOOVA herbicidal rating: 8.0
[5]; 0.0620 kg/ha
  MOOVA herbicidal rating: 9.0
[5]; 0.1250 kg/ha
  MOOVA herbicidal rating: 9.0
[5]; 0.2500 kg/ha
  MOOVA herbicidal rating: 9.0
[6]; 0.0320 kg/ha
  ECHORC herbicidal rating: 7.5
[6]; 0.0620 kg/ha
  ECHORC herbicidal rating: 9.0
[6]; 0.1250 kg/ha
  ECHORC herbicidal rating: 9.0
[6]; 0.2500 kg/ha
  ECHORC herbicidal rating: 9.0

## CC(C)OC(=O)C(C)(C)c1nsc2ccc(-n3c(=O)cc(C(F)(F)F)n(C)c3=O)cc12 [Example 489, 1,2-Benzisothiazole-3-acetic acid, 5-[3,6-dihydro-3-methyl-2,6-dioxo-4-(trifluoromethyl)-1(2H)-pyrimidinyl]-alpha,alpha-dimethyl-, isopropyl ester]
[1]; 0.0320 kg/ha
  CYPIR herbicidal rating: 6.0
[1]; 0.0620 kg/ha
  CYPIR herbicidal rating: 9.0
[1]; 0.1250 kg/ha
  CYPIR herbicidal rating: 9.0
[1]; 0.2500 kg/ha
  CYPIR herbicidal rating: 9.0
[2]; 0.0320 kg/ha
  ORYSAT herbicidal rating (rice tolerance): 5.0
[2]; 0.0620 kg/ha
  ORYSAT herbicidal rating (rice tolerance): 6.0
[2]; 0.1250 kg/ha
  ORYSAT herbicidal rating (rice tolerance): 6.0
[2]; 0.2500 kg/ha
  ORYSAT herbicidal rating (rice tolerance): 6.0
[3]; 0.0320 kg/ha
  SAGPY herbicidal rating: 6.0
[3]; 0.0620 kg/ha
  SAGPY herbicidal rating: 9.0
[3]; 0.1250 kg/ha
  SAGPY herbicidal rating: 9.0
[3]; 0.2500 kg/ha
  SAGPY herbicidal rating: 9.0
[4]; 0.0320 kg/ha
  CYPSE herbicidal rating: 6.0
[4]; 0.0620 kg/ha
  CYPSE herbicidal rating: 7.0
[4]; 0.1250 kg/ha
  CYPSE herbicidal rating: 9.0
[4]; 0.2500 kg/ha
  CYPSE herbicidal rating: 9.0
[5]; 0.0320 kg/ha
  MOOVA herbicidal rating: 9.0
[5]; 0.0620 kg/ha
  MOOVA herbicidal rating: 9.0
[5]; 0.1250 kg/ha
  MOOVA herbicidal rating: 9.0
[5]; 0.2500 kg/ha
  MOOVA herbicidal rating: 9.0
[6]; 0.0320 kg/ha
  ECHORC herbicidal rating: 7.0
[6]; 0.0620 kg/ha
  ECHORC herbicidal rating: 7.0
[6]; 0.1250 kg/ha
  ECHORC herbicidal rating: 9.0
[6]; 0.2500 kg/ha
  ECHORC herbicidal rating: 9.0

## Cn1c(C(F)(F)F)cc(=O)n(-c2cc3c(C(Br)Br)nsc3cc2F)c1=O [Example 372, 2,4(1H,3H)-Pyrimidinedione, 3-[3-(dibromomethyl)-6-fluoro-1,2-benzisothiazol-5-yl]-1-methyl-6-(trifluoromethyl)-]
[1]; Rate 0.0320 kg/ha
  herbicidal effect rating, CYPIR: 8.5
[1]; Rate 0.0620 kg/ha
  herbicidal effect rating, CYPIR: 9.0
[1]; Rate 0.1250 kg/ha
  herbicidal effect rating, CYPIR: 9.0
[1]; Rate 0.2500 kg/ha
  herbicidal effect rating, CYPIR: 9.0
[2]; Rate 0.0320 kg/ha
  herbicidal effect rating ORYSAT: 6.0
[2]; Rate 0.0620 kg/ha
  herbicidal effect rating ORYSAT: 8.0
[2]; Rate 0.1250 kg/ha
  herbicidal effect rating ORYSAT: 8.0
[2]; Rate 0.2500 kg/ha
  herbicidal effect rating ORYSAT: 9.0
[3]; Rate 0.0320 kg/ha
  herbicidal effect rating, SAGPY: 8.5
[3]; Rate 0.0620 kg/ha
  herbicidal effect rating, SAGPY: 9.0
[3]; Rate 0.1250 kg/ha
  herbicidal effect rating, SAGPY: 9.0
[3]; Rate 0.2500 kg/ha
  herbicidal effect rating, SAGPY: 9.0
[4]; Rate 0.0320 kg/ha
  herbicidal effect rating, CYPSE: 1.0
[4]; Rate 0.0620 kg/ha
  herbicidal effect rating, CYPSE: 5.0
[4]; Rate 0.1250 kg/ha
  herbicidal effect rating, CYPSE: 8.5
[4]; Rate 0.2500 kg/ha
  herbicidal effect rating, CYPSE: 9.0
[5]; Rate 0.0320 kg/ha
  herbicidal effect rating, MOOVA: 9.0
[5]; Rate 0.0620 kg/ha
  herbicidal effect rating, MOOVA: 9.0
[5]; Rate 0.1250 kg/ha
  herbicidal effect rating, MOOVA: 9.0
[5]; Rate 0.2500 kg/ha
  herbicidal effect rating, MOOVA: 9.0
[6]; Rate 0.0320 kg/ha
  herbicidal effect rating, ECHORC: 9.0
[6]; Rate 0.0620 kg/ha
  herbicidal effect rating, ECHORC: 9.0
[6]; Rate 0.1250 kg/ha
  herbicidal effect rating, ECHORC: 9.0
[6]; Rate 0.2500 kg/ha
  herbicidal effect rating, ECHORC: 9.0
